Results published in article PMC3908613 (Bioscience Reports, 2014).

Assays:
[1] = target: T1, GST-Mst1 (Homo sapiens, UniProt Q13043); assay: Kinase assay for recombinant Mst1; type: biochemical; details: 100 μM ATP, myelin basic protein substrate
T1 construct: GST; purchased DSTT
T1 sequence (Q13043 1-487): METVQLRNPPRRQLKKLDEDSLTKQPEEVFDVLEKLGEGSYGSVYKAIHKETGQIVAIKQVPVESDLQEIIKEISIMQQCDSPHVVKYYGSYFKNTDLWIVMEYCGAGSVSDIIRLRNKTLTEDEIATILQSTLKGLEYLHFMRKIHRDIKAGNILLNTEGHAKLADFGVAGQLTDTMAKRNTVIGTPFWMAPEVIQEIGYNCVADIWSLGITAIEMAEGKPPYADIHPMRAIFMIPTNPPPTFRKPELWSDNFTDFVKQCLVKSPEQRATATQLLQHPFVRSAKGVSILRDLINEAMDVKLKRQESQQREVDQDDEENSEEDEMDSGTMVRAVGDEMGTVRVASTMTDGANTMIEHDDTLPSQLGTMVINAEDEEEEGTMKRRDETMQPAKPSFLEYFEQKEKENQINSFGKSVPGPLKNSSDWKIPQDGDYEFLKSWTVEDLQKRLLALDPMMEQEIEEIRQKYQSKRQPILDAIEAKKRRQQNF

[2] = test system: BMDC; assay: Immunoblot of phosphorylated signalling proteins in stimulated BMDC; type: cell-based, C57BL/6 mice
Method: BMDC (1.5×10^6 cells) were incubated in 6-well plates in RPMI supplemented with 0.3% FCS for 5 h at 37°C. […] NIH3T3 cells (2×10^4) were plated in 6-well plates for 48 h at 37°C. The cells were deprived of serum for 8 h in DMEM supplemented with 2 mg/ml BSA (Sigma) and then stimulated with 100 ng/ml EGF (epidermal growth factor; Peprotech) for 5 min at 37°C.
Cells were washed in cold PBS, lysed on ice for 10 min in lysis buffer (1% Triton X-100 containing 50 mM Tris–HCl (pH 7.5), 150 mM NaCl, 1 mM EGTA, 1 mM EDTA, 10 mM NaF, 1 mM sodium orthovanadate and 5 mM sodium pyrophosphate and protease inhibitors (Roche)) and centrifuged for 10 min at 20000 g at 4°C.
BMDC (5×10^6 cells) were stimulated as described above. Lysates were pre-cleared with protein G Sepharose beads (Roche) for 30 min at 4°C. Paxillin was immunoprecipitated with 2 μg of anti-paxillin (Millipore) or with anti-IgG antibodies (Santa Cruz Biotechnology) for 1 h at 4°C and then incubated with 15 μl protein G Sepharose beads for 1 h at 4°C. Beads were washed four times with lysis buffer and paxillin was eluted with NuPage sample buffer (Invitrogen). The immunoprecipitated proteins were separated by electrophoresis on a 10% (w/v) NuPage gel and transferred onto a nitrocellulose membrane. The membrane was probed with anti-phospho Ser250-paxilin (kind gift of Luc Sabourin, McMaster University, Canada) or anti-paxillin antibodies.

[3] = target: T2, Mst1 (Mus musculus, UniProt Q9JI11); assay: Activity of Mst1 immunoprecipitated from BMDC; type: biochemical, C57BL/6 mice; details: immunoprecipitates treated with 1 μM D1870; resting and LPS-stimulated DC
T2 construct: Mst1, Lok and Slk were immunoprecipated from 150 μg, 850 μg and 1 mg of cell lysates respectively; endogenous in cells; host or cells: mouse bone-marrow-derived dendritic cells (BMDC), immunoprecipitate
T2 sequence (Q9JI11 1-487): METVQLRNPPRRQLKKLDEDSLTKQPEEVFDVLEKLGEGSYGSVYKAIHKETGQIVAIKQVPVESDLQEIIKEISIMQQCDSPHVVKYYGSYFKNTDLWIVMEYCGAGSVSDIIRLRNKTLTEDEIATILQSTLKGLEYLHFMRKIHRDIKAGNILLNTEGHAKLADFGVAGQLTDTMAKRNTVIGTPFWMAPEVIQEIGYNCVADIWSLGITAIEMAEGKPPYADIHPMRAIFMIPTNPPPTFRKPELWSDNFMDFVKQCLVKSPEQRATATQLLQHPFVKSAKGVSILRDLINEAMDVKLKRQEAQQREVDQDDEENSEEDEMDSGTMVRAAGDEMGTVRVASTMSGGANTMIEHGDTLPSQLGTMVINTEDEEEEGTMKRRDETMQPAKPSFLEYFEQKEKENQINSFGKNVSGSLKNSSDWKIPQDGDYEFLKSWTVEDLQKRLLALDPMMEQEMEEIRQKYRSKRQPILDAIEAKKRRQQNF
Method: (§1) Equal numbers of BMDC (1×10^7/dish) were incubated in 15 cm dishes in RPMI supplemented with 0.3% FCS for 3 h at 37°C then incubated for 30 min with or without 50 ng/ml LPS. The cells were washed once in cold PBS and lysed in the lysis buffer described above. Mst1, Lok and Slk were immunoprecipated from 150 μg, 850 μg and 1 mg of cell lysates respectively with 2 μg of anti-MST1 (Cell Signalling), anti-Slk (Bethyl) or anti-Lok (Bethyl) or control IgG (Santa Cruz Biotech) coupled to G-protein Sepharose (Amersham) for 1 h at 4°C. […] Kinase assays were performed as described above.
(§2) A combination of SILAC and nucleotide acyl
(§3) Alexander J. EDGAR*, Matthias TROST†, Colin WATTS*1 and Rossana ZARU*1
(§4) *Division of Cell Signalling and Immunolog y, University of Dundee, Dow Street, Dundee DD1 5EH, U.K., and †MRC Protein Phosphor ylation and Ubiquitylation Unit, College of Life Sciences, University of Dundee, Dow Street, Dundee DD1 5EH, U.K.
(§5) Supplementary Table S1 is available at http://www.bioscirep.
(§6) Mst1, Lok and Slk activities in DC either unstimulated or stimulated with LPS (50 ng/ml) for 30 min at 37 ◦ C. Immuno- […]
(§7) of triplicate stimulations. *P < 0.05, **P < 0.01, ***P < 0.001, ns not signiﬁcant.
(§8) 1 Correspondence may be addressed to either of these authors (email c.watts@dundee.ac.uk or r.zaru@dundee.ac.uk). […]

[4] = target: T3, Slk (Mus musculus, UniProt O54988); assay: Activity of Slk immunoprecipitated from BMDC; type: biochemical, C57BL/6 mice; details: immunoprecipitates treated with 1 μM D1870; resting and LPS-stimulated DC
T3 construct: Mst1, Lok and Slk were immunoprecipated from 150 μg, 850 μg and 1 mg of cell lysates respectively; endogenous in cells; host or cells: mouse bone-marrow-derived dendritic cells (BMDC), immunoprecipitate
T3 sequence (O54988 whole entry): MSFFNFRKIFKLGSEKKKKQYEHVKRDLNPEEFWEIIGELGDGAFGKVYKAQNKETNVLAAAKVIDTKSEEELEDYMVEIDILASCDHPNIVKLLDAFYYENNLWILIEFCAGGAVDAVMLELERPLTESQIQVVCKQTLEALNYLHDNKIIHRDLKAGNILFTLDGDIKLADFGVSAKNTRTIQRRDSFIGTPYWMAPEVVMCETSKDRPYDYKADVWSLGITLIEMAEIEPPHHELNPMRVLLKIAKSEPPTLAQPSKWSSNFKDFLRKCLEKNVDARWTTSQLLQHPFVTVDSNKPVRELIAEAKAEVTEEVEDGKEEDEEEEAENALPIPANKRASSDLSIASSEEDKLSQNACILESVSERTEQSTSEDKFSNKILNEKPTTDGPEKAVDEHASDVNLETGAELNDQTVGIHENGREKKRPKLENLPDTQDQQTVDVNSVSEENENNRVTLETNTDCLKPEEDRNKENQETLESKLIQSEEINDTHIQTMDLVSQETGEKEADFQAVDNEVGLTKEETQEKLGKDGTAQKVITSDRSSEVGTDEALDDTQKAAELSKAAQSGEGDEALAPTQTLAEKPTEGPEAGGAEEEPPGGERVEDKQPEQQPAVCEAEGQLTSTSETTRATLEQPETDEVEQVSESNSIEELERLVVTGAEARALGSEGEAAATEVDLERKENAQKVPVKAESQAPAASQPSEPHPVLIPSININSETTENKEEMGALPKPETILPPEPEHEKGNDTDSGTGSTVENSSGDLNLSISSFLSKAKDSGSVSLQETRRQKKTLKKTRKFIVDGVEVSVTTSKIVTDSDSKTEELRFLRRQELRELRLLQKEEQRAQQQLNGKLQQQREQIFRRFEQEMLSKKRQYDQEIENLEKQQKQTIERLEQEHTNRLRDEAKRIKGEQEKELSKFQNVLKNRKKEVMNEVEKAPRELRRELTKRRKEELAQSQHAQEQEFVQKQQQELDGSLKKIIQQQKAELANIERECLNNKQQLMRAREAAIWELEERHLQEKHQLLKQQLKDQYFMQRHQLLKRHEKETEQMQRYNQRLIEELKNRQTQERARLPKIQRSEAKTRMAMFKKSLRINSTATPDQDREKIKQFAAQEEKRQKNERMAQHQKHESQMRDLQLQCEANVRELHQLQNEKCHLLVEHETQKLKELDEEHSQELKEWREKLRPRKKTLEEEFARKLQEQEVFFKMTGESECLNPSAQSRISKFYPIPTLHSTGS
Method: as §1, §2, §3, §4, §5, §6, §7, §8

[5] = test system: PLK1; details: cited from earlier work

CC(C)CCN1c2nc(Nc3cc(F)c(O)c(F)c3)ncc2N(C)C(=O)C1C (centres unmarked) [D1870, BI-D1870]
IC50 [1]: ~300 nM
Erk1/2, p38 or JNK1/2 phosphorylation ([2]; LPS 50 ng/ml, 30 min): Neither inhibitor had any effect
GSK3α/β phosphorylation ([2]; LPS 50 ng/ml, 30 min): more potent
PKB phosphorylation at Ser473 and Thr308 ([2]; LPS 50 ng/ml, 30 min): complete block
Phosphorylation of MSK1 and MK2 ([2]; LPS 50 ng/ml, 30 min): not affected
phosphorylation of IκBα ([2]; LPS 50 ng/ml, 30 min): neither D1870 nor BIX affected
phosphorylation of ERM proteins ([2]; LPS, 30 min): substantial decrease
phosphorylation of paxillin on Ser250 ([2]; LPS, 30 min, paxillin immunoprecipitated): prevented its phosphorylation at low concentrations
PKB phosphorylation ([2]; MIP1α 100 ng/ml, 5 min, 4 μM D1870): impaired
kinase activity of Mst1 immunoprecipitated from DC [3]: substantially inhibited
kinase activity of Slk immunoprecipitated from DC [4]: significantly blocked
